Tested on: Human immunodeficiency virus 1
Assay: Antiviral activity against HIV1
Assay type: functional, organism-based

| Compound | IC50 [µM] |
| --- | --- |
| CC(=O)OCc1c(C)c2ccc3c(c2oc1=O)[C@@H](OC(=O)[C@@]12CC[C@](C)(C(=O)O1)C2(C)C)[C@@H](OC(=O)[C@@]12CC[C@](C)(C(=O)O1)C2(C)C)C(C)(C)O3 | 14.8 |
| Cc1cc(Br)c(Nc2ccnc(Nc3ccc(C#N)cc3)n2)c(Br)c1 | 0.00063 |
| Nc1nc(O)c2ncn([C@@H]3O[C@H](CO)C=C3F)c2n1 | 2.6 |
| O=C(O)/C(O)=C/C(=O)c1cccc(C(=O)/C=C(\O)C(=O)O)c1 | 1.83 |
| C[C@H]1O[C@@H](n2c(Cl)c(C#N)c3cc(Cl)c(Cl)cc32)[C@H](O)[C@@H]1O | 32 |
| Nc1ncnc2c1ncn2[C@H]1CC(F)(F)[C@H](CO)O1 | 100 |
| O=C(O)C(=C\c1ccc(O)c(O)c1)/C(=C\c1ccc(O)c(O)c1)C(=O)O | 2.19 |
| Nc1nc2c(ncn2[C@@H]2S[C@H](CO)C=C2F)c(=O)[nH]1 | 80.5 |
| C=C(C)[C@@H]1CC[C@]2(C(=O)N[C@@H](CC(C)C)C(=O)OC)CC[C@]3(C)[C@H](CC[C@@H]4[C@@]5(C)CC[C@H](OC(C)=O)C(C)(C)[C@@H]5CC[C@]43C)[C@@H]12 | 40 |
| Nc1nc(Cl)c2ncn([C@@H]3O[C@H](CO)C=C3F)c2n1 | 4.3 |
| Cc1cn([C@H]2O[C@H](CO)C=C2F)c(=O)nc1N | 100 |
| Nc1nc(=O)n([C@@H]2C=C(F)[C@H](CO)O2)cc1F | 0.018 |
| O=c1nc(O)ccn1[C@@H]1C=C(F)[C@H](CO)O1 | 100 |
| O=c1[nH]cnc2c1ncn2[C@@H]1S[C@H](CO)C=C1F | 43.6 |
| CCCCOC(=O)c1cc2c([nH]c3ccccc32)c(-c2ccc3c(n2)C(=O)C(NC(=O)CCC)=CC3=O)n1 [LAV12] | 5.8 |
| COC(=O)C(C)NP(=O)(OC[C@@H]1C=C[C@H](n2cc(C)c(=O)[nH]c2=O)O1)Oc1ccc(Br)cc1 (stereo partly specified) [STAMPIDINE] | 0.003 |
| Cc1c(Cc2c(F)cccc2F)nc(NC2CCCC2)[nH]c1=O | 0.03 |
| Cc1c(C(C)c2c(F)cccc2F)nc(SC2CCCC2)[nH]c1=O (stereo unspecified) | 0.005 |
| NC(=O)O[C@@H]1Cc2ccccc2C1C1=C(O)[C@](Cc2ccccc2)(C[C@H](O)[C@H](Cc2ccccc2)NC(=O)O[C@H]2CCOC2)N=C1 (stereo partly specified) | 2 |
| O=C1CSC(c2c(Cl)cccc2Cl)N1c1ccc(Br)cn1 (stereo unspecified) | 1.51 |

| Compound | IC50 [µM] |
| --- | --- |
| C=C(C)[C@@H]1CC[C@]2(C(=O)NCCCCCCCCCCC(=O)N[C@@H](CC(C)C)C(=O)O)CC[C@]3(C)[C@H](CC[C@@H]4[C@@]5(C)CC[C@H](O)C(C)(C)[C@@H]5CC[C@]43C)[C@@H]12 | 0.46 |
| CC1(C)Oc2ccc3cc(CBr)c(=O)oc3c2[C@@H](OC(=O)[C@@]23CC[C@](C)(C(=O)O2)C3(C)C)[C@H]1OC(=O)[C@@]12CC[C@](C)(C(=O)O1)C2(C)C | 11.1 |
| Cc1cc(=O)oc2c3c(c(CO)cc12)OC(C)(C)[C@H](OC(=O)[C@@]12CC[C@](C)(C(=O)O1)C2(C)C)[C@@H]3OC(=O)[C@@]12CC[C@](C)(C(=O)O1)C2(C)C | 15 |
| O=c1cc(Cc2c(F)cccc2F)nc(NC2CCCC2)[nH]1 | 0.07 |
| CC(c1cc(=O)[nH]c(NC2CCCC2)n1)c1c(F)cccc1F (stereo unspecified) | 0.04 |
| Nc1nc(O)c2ncn([C@H]3CC(F)(F)[C@H](CO)O3)c2n1 | 100 |
| O=c1nc(O)ccn1[C@H]1CC(F)(F)[C@H](CO)O1 | 100 |
| Nc1ccn([C@H]2CC(F)(F)[C@H](CO)O2)c(=O)n1 | 100 |
| Cc1cccc(C)c1OCC(=O)N[C@@H](Cc1ccccc1)[C@@H](O)C[C@H](Cc1ccccc1)NC(=O)[C@H](C(C)C)N1CCCNC1=O [LOPINAVIR] | 0.034 |
| Cc1cc(/C=C/C#N)cc(C)c1Nc1ccnc(Nc2ccc(C#N)cc2)n1 [RILPIVIRINE] | 0.0004 |
| Cc1cc(=O)oc2c3c(c(CN)cc12)OC(C)(C)[C@H](OC(=O)[C@@]12CC[C@](C)(C(=O)O1)C2(C)C)[C@@H]3OC(=O)[C@@]12CC[C@](C)(C(=O)O1)C2(C)C | 15 |
| Nc1ncnc2c1ncn2C1C=CC(OCP(=O)(O)OP(=O)(O)C(F)(F)P(=O)(O)OP(=O)(O)COC2C=CC(n3cnc4c(N)ncnc43)C2)C1 (stereo unspecified) | 20 |
| O=c1ccn([C@H]2S[C@@H](CO)C=C2F)c(=O)[nH]1 | 100 |
| C=CC[C@@]1(CO)C=C[C@H](n2cc(C)c(=O)[nH]c2=O)O1 | 100 |
| Cc1cn([C@@H]2O[C@H](CO)C=C2F)c(=O)nc1N | 100 |
| O=C(O)/C(O)=C/C(=O)c1c[nH]c2ccc(Cl)cc12 | 0.52 |
| Cc1c(CO)c(=O)oc2c3c(ccc12)OC(C)(C)[C@H](OC(=O)C12CCC(C)(C(=O)O1)C2(C)C)[C@@H]3OC(=O)C12CCC(C)(C(=O)O1)C2(C)C (stereo partly specified) | 24.9 |
| CCO/N=C(\c1ccc(Br)cc1)C1CCN(C2(C)CCN(C(=O)c3cccnc3C)CC2)CC1 | 0.0014 |
| Nc1nc(O)c2ncn([C@@H]3CC(F)(F)[C@H](CO)O3)c2n1 | 100 |
| O=c1cc(Cc2c(F)cccc2F)nc(SC2CCCC2)[nH]1 | 0.08 |

| Compound | IC50 [µM] |
| --- | --- |
| Cc1cn([C@H]2S[C@@H](CO)C=C2F)c(=O)[nH]c1=O | 100 |
| Cc1cn([C@H]2C=C[C@@](C#CCl)(CO)O2)c(=O)[nH]c1=O | 100 |
| OC[C@@H]1C=C(F)[C@@H](n2cnc3c(O)ncnc32)O1 | 100 |
| Nc1nc2c(ncn2C2C=CC(OCP(=O)(O)OP(=O)(O)C(F)(F)P(=O)(O)O)C2)c(=O)[nH]1 (stereo unspecified) | 25 |
| Cc1cc(C)nc(N2C(=O)CSC2c2c(F)cccc2F)c1 (stereo unspecified) | 0.059 |
| Cc1cc(C)nc(N2C(=O)CSC2c2c(Cl)cccc2Cl)c1 (stereo unspecified) | 0.09 |
| OC[C@@H]1O[C@H](n2cnc3c(O)ncnc32)C=C1F | 100 |
| COc1ccc(CC2CCN(C3(C)CCN(C(=O)c4c(C)cccc4C)CC3)CC2)cc1 | 0.026 |
| C=C(C)[C@@H]1CC[C@]2(C(=O)NCCCCCCCCCCC(=O)N[C@@H](CC(C)C)C(=O)OC)CC[C@]3(C)[C@H](CC[C@@H]4[C@@]5(C)CC[C@H](O)C(C)(C)[C@@H]5CC[C@]43C)[C@@H]12 | 32 |
| C=C(C)[C@@H]1CC[C@]2(C(=O)NCCCCCCCC(=O)N[C@@H](CC(C)C)[C@H](O)CC(=O)OCc3ccccc3)CC[C@]3(C)[C@H](CC[C@@H]4[C@@]5(C)CC[C@H](OC(C)=O)C(C)(C)[C@@H]5CC[C@]43C)[C@@H]12 | 28 |
| Nc1ccn([C@H]2O[C@H](CO)C=C2F)c(=O)n1 | 100 |
| C[C@H]1O[C@@H](n2c(Cl)c(C=O)c3cc(Cl)c(Cl)cc32)[C@H](O)[C@@H]1O | 20 |
| N#Cc1c(Cl)n([C@H]2C[C@H](O)[C@@H](CO)O2)c2cc(Cl)c(Cl)cc12 | 35 |
| Cc1cc(/C=C/C#N)cc(C)c1Oc1ccnc(Nc2ccc(C#N)cc2)n1 | 0.001 |
| Cc1cc(/C=C/C#N)ccc1Oc1ccnc(Nc2ccc(C#N)cc2)n1 | 0.00063 |
| O=C(O)/C(O)=C/C(=O)c1c[nH]c2ccccc12 | 1.43 |
| Nc1nc(O)c2ncn([C@H]3C=C(F)[C@H](CO)O3)c2n1 | 100 |
| Nc1nc2c(ncn2C2C=CC(OCP(=O)(O)OP(=O)(O)C(F)(F)P(=O)(O)OP(=O)(O)COC3C=CC(n4cnc5c(N)ncnc54)C3)C2)c(=O)[nH]1 (stereo unspecified) | 15 |
| CC(C)C[C@H](NC(=O)[C@H](Cc1ccccc1)C[C@H](O)[C@@H](CC(=O)OC(C)(C)C)Cc1ccccc1)C(=O)N[C@@H](Cc1ccccc1)C(N)=O | 0.6 |
| O=C(/C=C(\O)c1nnn[nH]1)c1c[nH]c2ccccc12 | 1.9 |

The next lines start with the values.

| IC50 [µM] | Compound |
| --- | --- |
| 35 | Cc1ncc([N+](=O)[O-])n1CCCOC(c1ccccc1)c1ccccc1 |
| 2.13 | O=C1CSC(c2c(F)cccc2Cl)N1c1ccc(Cl)cn1 (stereo unspecified) |
| 14 | Cc1ncc([N+](=O)[O-])n1CCOC(c1ccccc1)c1cccc(-n2cccc2)c1 (stereo unspecified) |
| 0.00085 | COc1ccnc2[nH]cc(C(=O)C(=O)N3CCN(C(=O)c4ccccc4)C[C@H]3C)c12 |
| 0.37 | NC(=O)c1cccc2c1nc(-c1c(F)cccc1F)n2Cc1c(F)cccc1F |
| 0.002 | CC(C)CN(C[C@@H](O)[C@H](Cc1ccccc1)NC(=O)O[C@H]1CCOC1)S(=O)(=O)c1ccc(N)cc1 |
| 0.015 | CC(=O)c1ccc2[nH]c(C(N)=O)c(S(=O)(=O)c3cc(C)cc(C)c3)c2c1 |
| 97 | Cc1ncc([N+](=O)[O-])n1CCOC(c1ccccc1)c1ccc(Cl)c(Cl)c1 (stereo unspecified) |
| 0.006 | Cc1cc(C)cc(Sc2c(C(N)=O)[nH]c3ccc(Cl)cc23)c1 |
| 200 | CC(=O)Nc1ccc(C(OCCn2c([N+](=O)[O-])cnc2C)c2ccccc2)cc1 (stereo unspecified) |
| 13 | NNC(=O)c1[nH]c2ccc(Cl)cc2c1Sc1cc(Cl)ccc1N |
| 5 | Cc1ncc([N+](=O)[O-])n1CCOC(c1ccccc1)c1ccc([N+](=O)[O-])cc1 (stereo unspecified) |
| 2.71 | COc1ccc(F)cc1-c1nc2c(N)cccc2n1Cc1c(F)cccc1F |
| 0.48 | O=C(O)/C(O)=C/C(=O)c1cc(OCc2ccccc2)cc(OCc2ccccc2)c1 |
| 200 | CCOC(=O)c1[nH]c2ccccc2c1S(=O)(=O)c1cc(Cl)ccc1N |
| 106 | COC(=O)C(=O)CC(=O)c1cc2ccccc2n1C |

| IC50 [µM] | Compound |
| --- | --- |
| 15 | NC(=O)c1cc2ccccc2n1S(=O)(=O)c1ccccc1 |
| 0.042 | Cc1cc(C)nc(N2C(=O)CSC2c2c(F)cccc2Cl)c1 (stereo unspecified) |
| 0.0017 | CCO/N=C(\c1ccc(Br)cc1)C1CCN(C2(C)CCN(C(=O)c3c(C)ccc[n+]3[O-])CC2)CC1 |
| 86 | COc1ccc(C(OCCn2c([N+](=O)[O-])cnc2C)c2ccccc2)cc1 (stereo unspecified) |
| 0.35 | O=C(O)/C(O)=C/C(=O)c1cccc(OCc2ccccc2)c1 |
| 7.1 | CCCCCCCCOC(=O)c1cc2c([nH]c3ccccc32)c(-c2ccc3c(n2)C(=O)C(NC(C)=O)=CC3=O)n1 |
| 66 | NC(=O)c1cc2ccc(Cl)cc2n1S(=O)(=O)c1ccccc1 |
| 200 | CCOC(=O)c1cc2ccccc2n1S(=O)(=O)c1ccccc1[N+](=O)[O-] |
| 5 | CC(C)OC(=O)c1cn(S(=O)(=O)c2ccccc2)c2ccccc12 |
| 0.004 | Cc1cc(S(N)(=O)=O)ccc1NC(=O)COc1ccc(Cl)cc1C(=O)c1cc(F)cc(C(F)(F)F)c1 |
| 8 | CC(C)(C)c1ccc(Sc2c(C(N)=O)[nH]c3ccc(Cl)cc23)cc1 |
| 32 | NC(=O)c1cn(S(=O)(=O)c2ccccc2)c2ccccc12 |
| 4.3 | O=C(NNC(=O)c1ccccc1S)c1ccccc1S [BIS(THIOSALICYL)HYDRAZIDE] |
| 100 | CCOC(=O)c1cc2ccccc2n1S(=O)(=O)c1cc(Cl)ccc1[N+](=O)[O-] |
| 0.023 | Cc1cccc(C)c1C(=O)N1CCC(C)(N2CCC(Cc3ccc(Cl)cc3)CC2)CC1 |

From ChEMBL document CHEMBL1136837, “Unified QSAR approach to antimicrobials. 4. Multi-target QSAR modeling and comparative multi-distance study of the giant components of antiviral drug-drug complex networks” (Bioorg Med Chem, 2009)
